The subject of assay [1] is MOG-induced CREAE in SJL Mice. In words: MOG-induced CREAE in SJL mice, molecular species comparison of GLA. Type of assay: in vivo. Conditions: for Mean Clinical Score / No. with EAE: 100 μl of test lipid. From the text:
γ-Linolenic acid (18:3n -6, GLA) is known to be rapidly converted to longer-chain omega-6 polyunsaturated fatty acids dihomo-γ-linolenic acid and arachidonic acid in vivo (Phylactos et al 1994, Harbige et al 1995, 2000). Therefore to increase the level of membrane long chain omega-6 fatty acids in MS the inventors have reviewed results obtained with several GLA-containing oils:- both fungal (from Mucor javanicus) and plant (Borago officianalis), Evening primrose Oenothera spp. or Blackcurrant Ribes spp) as well as a synthetic tri-GLA oil as GLA delivery systems in an in vivo experimental animal model of MS known as chronic relapsing experimental autoimmune encephalomyelitis (CREAE).
Experimental autoimmune encephalomyelitis (EAE) is an autoimmune inflammatory disease of the CNS, with or without demyelination, inducible in rodents and other mammalian species. […] Chronic relapsing and demyelinating EAE models (CREAE), which are characterised by demyelination and relapse phases, are therefore currently the animal models of choice for MS research (Fazakerley 1997).

The subject of assay [2] is EAE. Conditions: depending on dose (Harbige et al); cited from earlier work.
In assay [3] the test system is EAE. Conditions: guinea-pig (Meade et al 1978); cited from earlier work.
The test system of assay [4] is multiple sclerosis patients. Conditions: about 20 g/day; cited from earlier work.

Entries after “also recorded” stand apart in the source; their conditions may differ. Marks after values point to notes of the source that are not given here.

The text below walks through data of patent US7935729B2, “Use of triglyceride oils containing γ-linolenic acid residues and linoleic acid residues for the treatment of neurodegenerative disease” (BTG International Limited, priority 2003, dated 2011).

`CCCCC/C=C\C/C=C\C/C=C\CCCCC(=O)OCC(COC(=O)CCCC/C=C\C/C=C\C/C=C\CCCCC)OC(=O)CCCC/C=C\C/C=C\C/C=C\CCCCC` [TG-GLA, Triacylglycerol-GLA]: in assay [1], the “Mean Clinical Score” value is on record as 1.0 ± 1.3^c and the “No. with EAE” value is listed as 3/6. Moreover, the “Protective effect in CREAE (in words)” value in assay [1] (compared with borage oil) is listed as “protective effects similar to that of the borage oil; also recorded: effective at a lower dose level than the borage oil”.

`CCCCC/C=C\C/C=C\C/C=C\CCCCC(=O)OCC` [EE-GLA, Ethyl-Ester-GLA]: in assay [1], the “Mean Clinical Score” value was found to be 3.0 ± 0.8 and the “No. with EAE” value is 5/6.

Take `CCCCC/C=C\C/C=C\C/C=C\CCCCC(=O)O` [γ-linolenic acid]: the “Protection in acute rat EAE” value in assay [2] is reported as “fully protective”.

As for `CCCCC/C=C\C/C=C\CCCCCCCC(=O)O` [linoleic acid], in assay [3], the “Incidence and severity of EAE” value was “partially suppresses the incidence and severity of EAE”. Moreover, the “Protection in acute rat EAE” value in assay [2] is reported as “dose-dependent action on the clinical severity but did not abolish it”. For the same molecule, the “Duration and severity of relapses of multiple sclerosis” value in assay [4] is “relapses were less frequent, less severe and of shorter duration than controls”.
